Assay results from ChEMBL document CHEMBL2163271, “Antitumor agents 295. E-ring hydroxylated antofine and cryptopleurine analogues as antiproliferative agents: design, synthesis, and mechanistic studies” (J Med Chem, 2012).

What was measured:
Assay type in all cases: functional, cell-based
KB = assay: Cytotoxicity against human KB cells after 2 hrs by methylene blue staining-based spectrophotometric analysis
DU-145 = assay: Cytotoxicity against human DU145 cells after 2 hrs by methylene blue staining-based spectrophotometric analysis; conditions: DU-145, 2 h
[1] = Cytotoxicity against human KBVIN cells overexpressing P-gp after 2 hrs by methylene blue staining-based spectrophotometric analysis
A549 = assay: Cytotoxicity against human A549 cells after 2 hrs by methylene blue staining-based spectrophotometric analysis; conditions: A549, 2 h
SK-BR-3 = assay: Cytotoxicity against human SKBR3 cells after 2 hrs by methylene blue staining-based spectrophotometric analysis; conditions: SK-BR-3, 2 h

Structure (SMILES) | IC50 (KB) | IC50 (DU-145) | IC50 [1] | IC50 (A549) | IC50 (SK-BR-3)
COc1ccc2c3c(c4cc(OC)c(OC)cc4c2c1)C[C@H]1C[C@H](O)CN1C3 | 1.81 µM | 1.8 µM | 2.21 µM | 2.27 µM | –
COc1ccc2c3c(c4cc(OC)c(OC)cc4c2c1)C[C@H]1[C@@H](O)CCN1C3 | 1.83 µM | 3.2 µM | 3.42 µM | 2.81 µM | –
COc1ccc2c3c(c4cc(OC)c(OC)cc4c2c1)C[C@H]1CC(=O)CCN1C3 | 0.05 µM | 0.045 µM | 0.043 µM | 0.028 µM | –
COc1ccc2c3c(c4cc(OC)c(OC)cc4c2c1)C[C@H]1[C@@H](O)CCCN1C3 | 0.025 µM | 0.033 µM | 0.025 µM | 0.01 µM | –
COC1=C[C@@H]2Cc3c(c4ccc(OC)cc4c4cc(OC)c(OC)cc34)CN2C1 | 12 µM | 10.3 µM | 2.64 µM | 5.97 µM | –
COc1ccc2c3c(c4cc(OC)c(OC)cc4c2c1)C[C@H]1C[C@H](O)[C@@H](O)CN1C3 | 0.84 µM | 0.6 µM | 2.17 µM | 0.55 µM | –
COc1ccc2c3c(c4cc(OC)c(OC)cc4c2c1)C[C@H]1C[C@@H](OC)CCN1C3 | 5.24 µM | 3.57 µM | 3.69 µM | 7.11 µM | –
COc1ccc2c3c(c4cc(OC)c(OC)cc4c2c1)C[C@H]1C[C@@H](O)CN1C3 | 0.78 µM | 0.7 µM | 0.64 µM | 0.61 µM | –
COc1ccc2c3c(c4cc(OC)c(OC)cc4c2c1)C[C@H]1C[C@@H](O)[C@H](O)CN1C3 | 17.5 µM | 1.71 µM | 12.6 µM | 14.5 µM | –
COc1ccc2c3c(c4cc(OC)c(OC)cc4c2c1)C[C@H]1CC(=O)CN1C3 | 0.5 µM | 0.71 µM | 0.43 µM | 0.29 µM | –
COc1ccc2c3c(c4cc(OC)c(OC)cc4c2c1)C[C@H]1CC[C@H](O)CN1C3 | 2.25 µM | 2.25 µM | 3.07 µM | 2.51 µM | 6.44 µM
